Assay results as given in patent publication US7163960B2, “Treatment and prevention of inflammatory disorders” (Monsanto Technology L.L.C., priority 2002, dated 2007).
Entries after “also recorded” stand apart in the source; their conditions may differ. Marks after values point to notes of the source that are not given here.

Assays:
[1] = Fatty acid analysis of blood cell phospholipids and plasma lipid fractions after ingestion of test fatty acids; type: in vivo, human; details: for DHA (% of total fatty acids), Erythrocyte phospholipid / DHA (% of total fatty acids), Plasma phospholipid / DPA (% of total fatty acids), Erythrocyte phospholipid / DPA (% of total fatty acids), Plasma phospholipid / EPA (% of total fatty acids), Monocyte / EPA (% of total fatty acids), Plasma CE / EPA (% of total fatty acids), Plasma Phospholipid / EPA (% of total fatty acids), Plasma TG / EPA (% of total fatty acids), Platelet / EPA (% of total fatty acids), Red Blood: both, human, in vivo
From the text: (§1) 45 males and post-menopausal female—19–65 years of age, normolipidemic, and with a body mass index (BMI) in the range 20 to 30, were recruited. Exclusion criteria included bleeding disorders, hypertension, inflammatory disorders, active gastrointestinal diseases, chronic use of low dose aspirin, consumption of restaurant or takeaway evening meals more than twice per week, use of dietary supplements rich in n-3 or n-6 fatty acids, habitual consumption of more than 1 fish meal per month, and plasma phospholipid EPA+DHA levels>7.9% of total fatty acids (level achieved in the study group was 4.9±1.0% of total fatty acids).
(§2) Following a 3-week run-in period, subjects ingested either ALA, SDA, EPA supplied as ethyl esters in capsules. Intakes were 0.75 g/day for 3 weeks followed by 1.5 g/day for the subsequent 3 weeks.
At each visit, 36 mL of blood was taken by venepuncture after an overnight fast. Blood was aliquoted into various tubes for the following procedures.
Blood (20 mL) was added to tubes containing 4 mL 4.5% EDTA in water and 4 mL—6% dextran in normal saline, pH 7.0. Erythrocytes were allowed to sediment under gravity at 37° C. for 30 min. The leucocyte-rich plasma was layered onto LYMPHOPREP, density 1.077 (Nycomed Pharma, Oslo) and centrifuged at 110 g for 10 min to separate leucocytes from the platelets, which were removed. The gradient was further centrifuged at 200 g for 20 min to separate the neutrophils from mononuclear cells, which were removed.
Samples were processed for fatty acid analysis as described in Mantzioris et al., Am. J. Clin. Nutr., 72:42–8 (2000). Plasma, washed platelet and mononuclear cell pellets were stored at −80° C. Erythrocyte pellets were treated fresh with chloroform:isopropanol (2:1) and the lipid extracts stored at 4° C. Plasma, platelet and mononuclear cell pellets were extracted with chloroform:methanol. The cellular and plasma lipid extracts were fractionated by thin-layer chromatography. For the cellular extracts, the phospholipid fraction was retained and for the plasma extracts, the phospholipid, cholesterol ester, and triglyceride fractions were retained. These were transesterified by methanolysis (1% H2SO4 in methanol at 70° C. for 3 h). Fatty acid methyl esters were separated and quantified with a HEWLETT-PACKARD 6890 gas chromatograph equipped with a 50 m capillary column coated with BPX-70 (0.25 μm film thickness; SGE Pty Ltd, Victoria, Australia) (see Mantzioris et al., supra). Fatty acid standards were obtained from NuChek Prep Inc. (Elysian, Minn.) and included stearidonic acid obtained from Sigma Aldrich Pty Ltd. (Castle Hill, NSW, Australia). All organic solvents contained butylated hydroxy anisole (0.005%) as an antioxidant.

[2] = system: TNF-α; assay: TNF-α synthesis in LPS-treated whole blood; type: in vivo, human; details: for Effect on LPS-stimulated TNF synthesis: 1.5 g/day; for TNF-α synthesis in LPS-treated whole blood: mean ± SD
Description: as §2
(§3) Blood (4 mL) was added to heparinised tubes, bacterial lipopolysaccharide (LPS) was added (200 ng/mL), and the mixture was incubated at 37° C., 5% CO2, for 24 h. Plasma was collected and assayed for prostaglandin E2 (PGE2) by radioimmunoassay (RIA), interleukin-1β (IL-1β) and tumor necrosis factor-α (TNF-α) by ELISA, as described in Mantzioris et al., supra.

[3] = system: IL-1β; assay: IL-1β synthesis in LPS-treated whole blood; type: in vivo, human; details: for Effect on LPS-stimulated IL-1β synthesis: 0.75 g/day or 1.5 g/day (either dose); for IL-1β synthesis in LPS-treated whole blood: mean ± SD
Description: as §2, §3

[4] = system: prostaglandin E2 (PGE2); assay: PGE2 synthesis in LPS-stimulated whole blood; type: in vivo, human; details: for PGE2 synthesis in LPS-stimulated whole blood: mean ± SD
Description: as §2, §3

[5] = system: C-reactive protein; assay: Clinical study of SDA on down-regulating C-reactive protein; type: in vivo, human; details: Example 3, described in present tense; about 0.75 then 1.5 g/day
From the text: as §1, with “Approximately 35–50” for “45”, “female -19–65” for “female—19–65”, “are” for “were”, “include” for “included”, “acids. Subjects are randomly allocated to one” for “acids (level achieved in the study group was 4.9±1.0%”, “three groups, designated ALA, SDA, and EPA. […]” for “total fatty acids).”
C-reactive protein (Hs-CRP) in plasma can be analyzed by use of latex-enhanced immunonephelometric assay on a BN II analyzer (Rifai et al. Clinical efficacy of an automated high-sensitivity C-reactive protein assay. Clin. Chem […];45:2136). […]
Subjects are weighed at each visit for change in weight during the trial. […] Fatty acids are analyzed between dietary groups in EPA concentration in erythrocyte or plasma phospholipids. The effect of ingestion of EPA, ALA or SDA at 0.75 g/day (weeks 0 to 3) or 1.5 g/day (weeks 3 to 6) is determined with respect to EPA concentration in the phospholipid fractions of erythrocytes and plasma. Effects on DPA concentration in the phospholipid fractions of erythrocytes and plasma are also analyzed.

[6] = system: leukotrienes; details: U.S. Pat. No. 5,158,975; cited from earlier work
[7] = Week 3 (after 0.75 g/day for 3 weeks)
[8] = Week 6 (after 1.5 g/day for 3 weeks)
[9] = Week −3 (start of run-in, before dosing)
[10] = Visit 3, following ingestion of 0.75 g

CC/C=C\C/C=C\C/C=C\CCCCCCCC(=O)O [ALA, α-linolenic acid]
DHA (% of total fatty acids), Erythrocyte phospholipid ([1]; 0 week): 4.61 ± 0.71^b % of total fatty acids
DHA (% of total fatty acids), Plasma phospholipid ([1]; 0 weeks): 3.64 ± 0.65 % of total fatty acids
DPA (% of total fatty acids), Erythrocyte phospholipid ([1]; 0 weeks): 3:08 ± 0:35 % of total fatty acids
DPA (% of total fatty acids), Plasma phospholipid ([1]; 0 weeks): 1.39 ± 0.26^ab % of total fatty acids
EPA (% of total fatty acids), Monocyte ([1]; 0 weeks): 0.57 (0.11)a % of total fatty acids
EPA (% of total fatty acids), Plasma CE ([1]; 0 weeks): 1.16 (0.33)ab % of total fatty acids
EPA (% of total fatty acids), Plasma Phospholipid ([1]; 0 weeks): 1.16 (0.31)ab % of total fatty acids
EPA (% of total fatty acids), Plasma TG ([1]; 0 weeks): 0.27 (0.12) % of total fatty acids
EPA (% of total fatty acids), Platelet ([1]; 0 weeks): 0.48 (0.11)a % of total fatty acids
EPA (% of total fatty acids), Red Blood ([1]; 0 weeks): 0.88 (0.17)a % of total fatty acids
EPA (% of total fatty acids), Monocyte ([1]; 3 weeks): 0.63 (0.14)a3 % of total fatty acids
EPA (% of total fatty acids), Plasma CE ([1]; 3 weeks): 1.35 (0.58)bc2 % of total fatty acids
EPA (% of total fatty acids), Plasma Phospholipid ([1]; 3 weeks): 1.33 (0.54)bc3 % of total fatty acids
EPA (% of total fatty acids), Plasma TG ([1]; 3 weeks): 0.32 (0.13)2 % of total fatty acids
EPA (% of total fatty acids), Platelet ([1]; 3 weeks): 0.55 (0.14)a2 % of total fatty acids
EPA (% of total fatty acids), Red Blood ([1]; 3 weeks): 0.92 (0.23)a3 % of total fatty acids
EPA (% of total fatty acids), Monocyte ([1]; 6 weeks): 0.81 (0.28)b2 % of total fatty acids
EPA (% of total fatty acids), Plasma CE ([1]; 6 weeks): 1.41 (0.36)c3 % of total fatty acids
EPA (% of total fatty acids), Plasma Phospholipid ([1]; 6 weeks): 1.43 (0.40)c3 % of total fatty acids
EPA (% of total fatty acids), Plasma TG ([1]; 6 weeks): 0.34 (0.16)2 % of total fatty acids
EPA (% of total fatty acids), Platelet ([1]; 6 weeks): 0.64 (0.21)b2 % of total fatty acids
EPA (% of total fatty acids), Red Blood ([1]; 6 weeks): 1.01 (0.18)b3 % of total fatty acids
DHA (% of total fatty acids), Erythrocyte phospholipid ([1]; -3 week): 4.87 ± 0.74^a % of total fatty acids
DHA (% of total fatty acids), Plasma phospholipid ([1]; -3 weeks): 3.70 ± 0.63 % of total fatty acids
DPA (% of total fatty acids), Erythrocyte phospholipid ([1]; -3 weeks): 3.10 ± 0.40 % of total fatty acids
DPA (% of total fatty acids), Plasma phospholipid ([1]; -3 weeks): 1.29 ± 0.18^a % of total fatty acids
EPA (% of total fatty acids), Monocyte ([1]; -3 weeks): 0.67 (0.20)^a % of total fatty acids
EPA (% of total fatty acids), Plasma CE ([1]; -3 weeks): 1.11 (0.26)^a % of total fatty acids
EPA (% of total fatty acids), Plasma Phospholipid ([1]; -3 weeks): 1.07 (0.23)^a % of total fatty acids
EPA (% of total fatty acids), Plasma TG ([1]; -3 weeks): 0.26 (0.08) % of total fatty acids
EPA (% of total fatty acids), Platelet ([1]; -3 weeks): 0.44 (0.12)^a % of total fatty acids
EPA (% of total fatty acids), Red Blood ([1]; -3 weeks): 0.88 (0:16)^a % of total fatty acids
Effect on LPS-stimulated TNF synthesis [2]: statistically significant decreases
TNF-α synthesis in LPS-treated whole blood ([2]; Week 0 (baseline)): 36.8 ± 17.4^a ng/mL
TNF-α synthesis in LPS-treated whole blood [2, 7]: 32.7 ± 11.9^a ng/mL
TNF-α synthesis in LPS-treated whole blood [2, 8]: 25.3 ± 7.2^b ng/mL
TNF-α synthesis in LPS-treated whole blood [2, 9]: 30.9 ± 13.1^a ng/mL
Effect on LPS-stimulated IL-1β synthesis [3]: no effect
IL-1β synthesis in LPS-treated whole blood ([3]; Week 0 (baseline)): 96.9 ± 30.9 ng/mL
IL-1β synthesis in LPS-treated whole blood [3, 7]: 87.3 ± 29.9 ng/mL
IL-1β synthesis in LPS-treated whole blood [3, 8]: 83.3 ± 24.0 ng/mL
IL-1β synthesis in LPS-treated whole blood [3, 9]: 97.9 ± 27.4 ng/mL
Effect on LPS-stimulated PGE2 synthesis ([4]; 1.5 g/day): no change
Effect on LPS-stimulated PGE2 synthesis [4, 10]: statistically significant increases
PGE2 synthesis in LPS-stimulated whole blood ([4]; Week 0 (baseline)): 4.63 ± 2.21^a ng/mL
PGE2 synthesis in LPS-stimulated whole blood [4, 7]: 6.25 ± 3.00^b ng/mL
PGE2 synthesis in LPS-stimulated whole blood [4, 8]: 4.30 ± 1.37^a ng/mL
PGE2 synthesis in LPS-stimulated whole blood [4, 9]: 4.00 ± 1.65^a ng/mL

CC/C=C\C/C=C\C/C=C\C/C=C\CCCCC(=O)O [SDA, stearidonic acid]
Effect on EPA concentration in the phospholipid fractions of erythrocytes and plasma ([1]; 0.75 g/day (weeks 0 to 3)): significantly increased
Effect on DPA concentration in the phospholipid fractions of erythrocytes and plasma ([1]; 1.5 g/day): significantly increased; also recorded: elevated
Effect on EPA concentration in the phospholipid fractions of erythrocytes and plasma ([1]; 1.5 g/day (weeks 3 to 6)): significantly increased; also recorded: elevated
Effect on tissue levels of DHA (FIG. 1) ([1]; erythrocytes and plasma phospholipids, 1.5 g/day): not DHA
Efficiency relative to ALA at elevating tissue EPA levels ([1]; in humans): about four times more efficient than ALA
Effect on LPS-stimulated TNF synthesis [2]: statistically significant decreases
TNF-α synthesis in LPS-treated whole blood ([2]; Week 0 (baseline)): 43.7 ± 18.7^a ng/mL
TNF-α synthesis in LPS-treated whole blood [2, 7]: 37.7 ± 14.2^ab ng/mL
TNF-α synthesis in LPS-treated whole blood [2, 8]: 34.1 ± 12.0^b ng/mL
TNF-α synthesis in LPS-treated whole blood [2, 9]: 37.6 ± 14.6^ab ng/mL
Effect on LPS-stimulated IL-1β synthesis [3]: significantly decreased
IL-1β synthesis in LPS-treated whole blood ([3]; Week 0 (baseline)): 94.7 ± 29.3^b ng/mL
IL-1β synthesis in LPS-treated whole blood [3, 7]: 81.4 ± 21.9^c ng/mL
IL-1β synthesis in LPS-treated whole blood [3, 8]: 77.8 ± 26.4^c ng/mL
IL-1β synthesis in LPS-treated whole blood [3, 9]: 106.9 ± 33.0^a ng/mL
Effect on LPS-stimulated PGE2 synthesis ([4]; 1.5 g/day): no change
Effect on LPS-stimulated PGE2 synthesis [4, 10]: statistically significant increases
PGE2 synthesis in LPS-stimulated whole blood ([4]; Week 0 (baseline)): *4.64 ± 1.09^a ng/mL
PGE2 synthesis in LPS-stimulated whole blood [4, 7]: 6.26 ± 2.56^b ng/mL
PGE2 synthesis in LPS-stimulated whole blood [4, 8]: 4.61 ± 0.95^a ng/mL
PGE2 synthesis in LPS-stimulated whole blood [4, 9]: 3.97 ± 1.48^a ng/mL
Effect of SDA intake on C-reactive protein [5]: decrease in C-reactive protein
Effect on biosynthesis of leukotrienes [6]: inhibit biosynthesis of leukotrienes
